Reference: patent US12024506B2, “Compounds” (Oxford University Innovation Limited, priority 2018, dated 2024)

Tests used:
[1] = target: T1, GST-human KRas166 (G12V) GPPNHP (Homo sapiens, UniProt P01116, G12V); experiment: KRas small-molecule screening by SPR (Biacore T200); type: binding; details: compound 100 uM, 5% DMSO buffer; immobilised GST-KRas166 (G12V) GPPNHP
T1 construct: made in house; host or cells: E. coli C41(DE3)
Summary of the method: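 Biacore T200 screen: compounds at 100 uM final in 5% DMSO buffer (100 mM NaCl, 5 mM MgCl2) over GPPNHP-bound GST-KRas166 G12V captured by anti-GST antibody (10,000–15,000 RU) versus GST-only channel. Expected 1:1 Rmax 63 RU; DMSO solvent correction applied.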

[2] = test system: H358 cells (ATCC CRL-5807); experiment: Cell viability assay 1 (CellTiter-Glo), H358 cells; type: cell-based; details: Homo sapiens, NCI-H358, 48 h, first value of the cell, read-out: Cell Viability H358 (concentration that decreases cell viability by 50%)
Summary of the method: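 H358 cells were grown in RPMI-1640 with 10% FCS and 2 mM L-glutamine, plated at 5000 cells/well and allowed to adhere overnight. Compound was added in 0.5% DMSO final for 48 h at 37° C. Viability was read by CellTiter-Glo luminescence, with the 50% viability-reducing concentration derived from dose-response curves.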

[3] = test system: DLD1 cells (ATCC CCL-221); experiment: Cell viability assay 1 (CellTiter-Glo), DLD1 cells; type: cell-based; details: Homo sapiens, DLD-1 cells, 48 h, second value of the cell, read-out: Cell Viability DLD-1 (concentration that decreases cell viability by 50%)
Summary of the method: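 DLD1 cells grown in RPMI-1640 with 10% FCS, 2 mM L-glutamine, 37 °C, 5% CO2, plated overnight then exposed to compound (0.5% DMSO) for 48 h. Viability by CellTiter-Glo luminescence; value is concentration reducing viability by 50% from dose-response curves.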

| SMILES | SPR Response Units [1] [Response Units] | IC50 [2] [µM] | IC50 [3] [µM] |
| --- | --- | --- | --- |
| COc1nc(-c2cccc3c2OCCO3)ccc1Nc1ccc(CC(=O)N2CCN(C)CC2)cc1 [Example 198, 2-{4-[6-(2,3-Dihydro-benzo[1,4]dioxin-5-yl)-2-methoxy-pyridin-3-ylamino]-phenyl}-1-(4-methyl-piperazin-1-yl)-ethanone] | 330 | 1.57 | 21.8 |
| COc1nc(-c2cccc3c2OCCO3)ccc1Nc1cccc(CN2CCCC(C(N)=O)C2)c1 (stereo not drawn) [Example 200, 1-{3-[6-(2,3-Dihydro-benzo[1,4]dioxin-5-yl)-2-methoxy-pyridin-3-ylamino]-benzyl}-piperidine-3-carboxylic acid amide] | 424 | 1.5 | 8.6 |
| COc1nc(-c2cccc3c2OCCO3)ccc1Nc1cccc(CC(=O)NCC2CCN(C)CC2)c1 [Example 202, 2-{3-[6-(2,3-Dihydro-benzo[1,4]dioxin-5-yl)-2-methoxy-pyridin-3-ylamino]-phenyl}-N-(1-methyl-piperidin-4-ylmethyl)-acetamide] | 387 | 17.5 | 10.5 |
| COc1nc(-c2cccc3c2OCCO3)ccc1Nc1cccc(CC(=O)NC2CCN(C)CC2)c1 [Example 203, 2-{3-[6-(2,3-Dihydro-benzo[1,4]dioxin-5-yl)-2-methoxy-pyridin-3-ylamino]-phenyl}-N-(1-methyl-piperidin-4-yl)-acetamide] | 339 | 33.7 | 12.2 |
| COc1nc(-c2cccc3c2OCCO3)ccc1Nc1cccc(CC(=O)N2CCN(C)CC2)c1 [Example 204, 2-{3-[6-(2,3-Dihydro-benzo[1,4]dioxin-5-yl)-2-methoxy-pyridin-3-ylamino]-phenyl}-1-(4-methyl-piperazin-1-yl)-ethanone] | 423 | 19.8 | 17.6 |

Next, values leading:

| SPR Response Units [1] [Response Units] | IC50 [2] [µM] | IC50 [3] [µM] | SMILES |
| --- | --- | --- | --- |
| 176 | 13 | 3.8 | COc1nc(-c2cccc3c2OCCO3)ccc1Nc1cccc(CNCC2CCC(=O)NC2)c1 (stereo not drawn) [Example 195, 5-({3-[6-(2,3-Dihydro-benzo[1,4]dioxin-5-yl)-2-methoxy-pyridin-3-ylamino]-benzylamino}-methyl)-piperidin-2-one] |
| 194 | 30.6 | 7.2 | COc1nc(-c2cccc3c2OCCO3)ccc1Nc1ccc(C(=O)NCC2CCNC(=O)C2)cc1 (stereo not drawn) [Example 196, 4-[6-(2,3-Dihydro-benzo[1,4]dioxin-5-yl)-2-methoxy-pyridin-3-ylamino]-N-(2-oxo-piperidin-4-ylmethyl)-benzamide] |
| 453 | > 150 | 15.9 | COc1nc(-c2cccc3c2OCCO3)ccc1Nc1ccc(CC(=O)NCC2CCN(C)CC2)cc1 [Example 197, 2-{4-[6-(2,3-Dihydro-benzo[1,4]dioxin-5-yl)-2-methoxy-pyridin-3-ylamino]-phenyl}-N-(1-methyl-piperidin-4-ylmethyl)-acetamide] |
| 93 | 24.2 | 6.5 | COc1nc(-c2cccc3c2OCCO3)ccc1Nc1ccc(CN2CCN(Cc3cccnc3)CC2)cc1 [Example 199, [6-(2,3-Dihydro-benzo[1,4]dioxin-5-yl)-2-methoxy-pyridin-3-yl]-[4-(4-pyridin-3-ylmethyl-piperazin-1-ylmethyl)-phenyl]-amine] |
| 209 | 6.8 | 10.5 | COc1nc(-c2cccc3c2OCCO3)ccc1Nc1ccc(CNCC2CCNC(=O)C2)cc1 (stereo not drawn) [Example 201, 4-({4-[6-(2,3-Dihydro-benzo[1,4]dioxin-5-yl)-2-methoxy-pyridin-3-ylamino]-benzylamino}-methyl)-piperidin-2-one] |
